In assay [1] the target is T1, Myxococcus xanthus MxPPO (SEQ ID NO: 3) variant I311M, fused to MBP (Myxococcus xanthus, UniProt P56601, I311M).
T1 construct: made in house; host or cells: BL21 CodonPlus(DE3) E. coli
Put plainly: biochemical.
Description: (§1) Thus, PPO proteins of wild type and variants were expressed as fused to MBP and were used for experiments.
(§2) In order to express wild type and variant proteins of ApPPO1 and MxPPO, those genes were introduced into pMAL-c2x vector (refer to FIG. 25), respectively.
(§3) The following process for purification of PPO protein was performed in a 4° C. cold room. […] The column was washed with 3 column volumes of buffer and the presence of protein in the washing solution was examined. When the protein was no longer detected, the washing procedure was terminated. Then, the MBP-PPO protein was eluted with approximately 2 column volumes of buffer containing 20 mM maltose. The protein concentration of each eluent was determined and the elution was stopped when the protein was no longer detected. Ten microliter of each fraction was investigated for protein quantification and SDS-PAGE analysis. […]
(§4) Hundred and eighty microliters of a reaction mixture containing the purified PPO protein were placed in 96 well plates and 20 μl of purified PPO proteins were added. […] The reaction proceeded at room temperature for 30 min and the fluorescence of protoporphyrin IX was measured using Microplate reader (Sense, Hidex) (excitation: 405 nm; emission: 633 nm). […] To this, 2.7 N HCl was added, and the absorbance at 408 nm was measured. […]

Assay [2] deals with Auxenochlorella protothecoides ApPPO1 (SEQ ID NO: 1) variant R140A, fused to MBP (Auxenochlorella protothecoides, UniProt A0A087SQM0, R140A). Description: PPO enzyme inhibition assay (IC50), MBP-fused PPO. The class given is biochemical.
Description: as §1, §3
(§5) Hundred and eighty microliters of a reaction mixture containing the purified PPO protein were placed in 96 well plates and 20 μl of purified PPO proteins were added. […] The reaction proceeded at room temperature for 30 min and the fluorescence of protoporphyrin IX was measured using Microplate reader (Sense, Hidex) (excitation: 405 nm; emission: 633 nm). […] To this, 2.7 N HCl was added, and the absorbance at 408 nm was measured. A standard curve was generated using standard protoporphyrin IX, and PPO activity was measured by calibration of protoporphyrin IX using the standard curve of protoporphyrin IX.
For assay [3], the system named is E. coli BT3(ΔPPO) transformed with Myxococcus xanthus MxPPO (SEQ ID NO: 3) variant M365L. Description: Herbicide tolerance test in PPO-deficient E. coli BT3(ΔPPO), growth on plates. Particulars: Table 9, light, tiafenacil to 2000 μM, saflufenacil to 200 μM, flumioxazin to 100 μM. Type of assay: cell-based.
Description: (§6) The mutated CyPPO gene obtained from the Example 2 was transformed to BT3 (ΔPPO) strain which is deficient of PPO activity and cultured in LB media with PPO-inhibiting herbicide, thereby examining whether growth of transformed BT3 was not inhibited.
(§7) BT3 competent cells were transformed with the pET303-ApPPO1 and pET303-MxPPO plasmids and those with a mutation(s) constructed in Example 2 respectively, and were cultured in LB agar media containing carbenicillin (Gold Biotechnology, Co., Ltd.).
(§8) Single colony of E. coli transformed with each CyPPO gene was cultured in 3 ml of LB broth containing carbenicillin overnight, and then was subcultured until absorbance (OD600) reached 0.5 to 1. Then, it was diluted with LB broth to OD600=0.5. Again, the diluted solution was serially diluted 4 times by a factor of one tenth.
(§9) The LB agar media (LB 25 g/l, Bacto agar 15 g/l) containing carbenicillin (100 μg/ml) and 0 to 4,000 μM of various herbicides dissolved in DMSO was prepared. Next, 10 μl of each diluted solution was dropped on the plate and cultured at 37° C. under light (Tables 7, 9 and 10, FIGS. 2 to 6, 13 to 20) or dark (Tables 8 and 11, FIGS. 7 to 12, 21 to 24) for 16 to 20 hours. Then, the extent of tolerance was evaluated.
(§10) The extent of herbicide tolerance of the ApPPO1 or MxPPO mutated genes was evaluated by comparing that of mutated genes with that of ApPPO1 or MxPPO wild type. […]
Assay [4] concerns E. coli BT3(ΔPPO) transformed with Auxenochlorella protothecoides ApPPO1 (SEQ ID NO: 1) variant Y422C (YC). The description is as above. Type of assay: cell-based. Particulars: Table 7, light, 37° C., 16 to 20 hours, vs wild type at highest herbicide concentration.
Description: as §6, §7, §8, §9
(§11) The extent of herbicide tolerance of the ApPPO1 or MxPPO mutated genes was evaluated by comparing that of mutated genes with that of ApPPO1 or MxPPO wild type. The relative tolerance was represented with “+” as a factor of 10 times.
(§12) In Tables 7 to 11, tolerance level was presented as ‘−’ of tolerance of wild type and of variants equivalent to that of wild type, and was done as ‘+’ per each 10 fold resistance until ‘+++++’ as maximal resistance. […] A dilution series (OD600=0.5, 0.05, 0.005, 0.0005, 0.00005) was made and spotted on LB agar plates supplemented with herbicides.
Assay [5] relates to E. coli BT3(ΔPPO) transformed with Auxenochlorella protothecoides ApPPO1 (SEQ ID NO: 1) variant Y422T (YT). Described as above. Type of assay: cell-based. Particulars: Table 7, light, 37° C., 16 to 20 hours, vs wild type at highest herbicide concentration.
Description: as §6, §7, §8, §9, §11, §12
The target of assay [6] is Auxenochlorella protothecoides ApPPO1 (SEQ ID NO: 1) variant A215C, fused to MBP (Auxenochlorella protothecoides, UniProt A0A087SQM0, A215C). Description: PPO enzyme inhibition assay (IC50), MBP-fused PPO. The class given is biochemical.
Description: as §1, §3, §5
Assay [7] concerns the target Auxenochlorella protothecoides ApPPO1 (SEQ ID NO: 1) variant F386V, fused to MBP (Auxenochlorella protothecoides, UniProt A0A087SQM0, F386V). Put plainly: PPO enzyme inhibition assay (IC50), MBP-fused PPO. Type of assay: biochemical.
In assay [8] the target is T2, Myxococcus xanthus MxPPO (SEQ ID NO: 3) variant L332T, fused to MBP (Myxococcus xanthus, UniProt P56601, L332T).
T2 construct: made in house; host or cells: BL21 CodonPlus(DE3) E. coli
Put plainly: PPO enzyme inhibition assay (IC50), MBP-fused PPO (Table 15). Type of assay: biochemical.
Description: as §1, §2, §3, §4

Assay [9] concerns the target Auxenochlorella protothecoides ApPPO1 (SEQ ID NO: 1) variant V213C, fused to MBP (Auxenochlorella protothecoides, UniProt A0A087SQM0, V213C). Put plainly: biochemical.
Description: as §1, §3, §5
The target of assay [10] is T3, Myxococcus xanthus MxPPO (protoporphyrinogen IX oxidase), wild type, SEQ ID NO: 3, fused to MBP (Myxococcus xanthus, UniProt P56601).
T3 construct: For encoding the PPO protein (MxPPO); made in house; host or cells: BL21 CodonPlus(DE3) E. coli
Description: PPO enzyme inhibition assay (IC50), MBP-fused PPO (Table 15). Type of assay: biochemical. The note with it: protoporphyrinogen IX 50 μM, room temperature, 30 min.

The target of assay [11] is T4, Myxococcus xanthus MxPPO (SEQ ID NO: 3) variant I168C, fused to MBP (Myxococcus xanthus, UniProt P56601, I168C).
T4 construct: For encoding the PPO protein (MxPPO); made in house; host or cells: BL21 CodonPlus(DE3) E. coli
The assay is described as above. The class given is biochemical.

In assay [12] the test system is E. coli BT3(ΔPPO) transformed with Auxenochlorella protothecoides ApPPO1 (SEQ ID NO: 1) variant V360M (VM). Put plainly: Herbicide tolerance test in PPO-deficient E. coli BT3(ΔPPO), growth on plates. The class given is cell-based. Particulars: Table 7, light, 37° C., 16 to 20 hours, vs wild type at highest herbicide concentration.
Description: as §6, §7, §8, §9, §11, §12
Assay [13] deals with E. coli BT3(ΔPPO) transformed with Myxococcus xanthus MxPPO (SEQ ID NO: 3) variant A170L. The description is as above. The class given is cell-based. The note with it: Table 9, light, tiafenacil to 2000 μM, saflufenacil to 200 μM, flumioxazin to 100 μM.
Description: as §6, §7, §8, §9, §10
Assay [14] has as its system E. coli BT3(ΔPPO) transformed with Auxenochlorella protothecoides ApPPO1 (SEQ ID NO: 1) variant A215L (AL). The description is as above. Type of assay: cell-based. The note with it: Table 7, light, 37° C., 16 to 20 hours, vs wild type at highest herbicide concentration.
Description: as §6, §7, §8, §9, §11, §12
In assay [15] the target is Auxenochlorella protothecoides ApPPO1 (SEQ ID NO: 1) variant V360M, fused to MBP (Auxenochlorella protothecoides, UniProt A0A087SQM0, V360M). Put plainly: PPO enzyme inhibition assay (IC50), MBP-fused PPO. The class given is biochemical.
For assay [16], the system named is E. coli BT3(ΔPPO) transformed with Myxococcus xanthus MxPPO (SEQ ID NO: 3) variant M365V. Put plainly: Herbicide tolerance test in PPO-deficient E. coli BT3(ΔPPO), growth on plates. The class given is cell-based. The note with it: Table 9, light, tiafenacil to 2000 μM, saflufenacil to 200 μM, flumioxazin to 100 μM.
Description: as §6, §7, §8, §9, §10
Assay [17] relates to E. coli BT3(ΔPPO) transformed with Myxococcus xanthus MxPPO (SEQ ID NO: 3) variant I311M. Described as above. Type of assay: cell-based. Particulars: Table 9, light, tiafenacil to 2000 μM, saflufenacil to 200 μM, flumioxazin to 100 μM.
Description: as §6, §7, §8, §9, §10
The target in assay [18] is T5, Myxococcus xanthus MxPPO (SEQ ID NO: 3) variant A170L, fused to MBP (Myxococcus xanthus, UniProt P56601, A170L).
T5 construct: made in house; host or cells: BL21 CodonPlus(DE3) E. coli
Description: biochemical.
Description: as §1, §2, §3, §4

Assay [19] addresses T6, Myxococcus xanthus MxPPO (SEQ ID NO: 3) variant F329V, fused to MBP (Myxococcus xanthus, UniProt P56601, F329V).
T6 construct: For encoding the PPO protein (MxPPO); made in house; host or cells: BL21 CodonPlus(DE3) E. coli
Put plainly: PPO enzyme inhibition assay (IC50), MBP-fused PPO (Table 15). Type of assay: biochemical.
Description: as §1, §2, §3, §4

Assay [20] addresses T7, Myxococcus xanthus MxPPO (SEQ ID NO: 3) variant A170C, fused to MBP (Myxococcus xanthus, UniProt P56601, A170C).
T7 construct: made in house; host or cells: BL21 CodonPlus(DE3) E. coli
Described as above. The class given is biochemical.
Description: as §1, §2, §3, §4

Assay [21] has as its system E. coli BT3(ΔPPO) transformed with Auxenochlorella protothecoides ApPPO1 (SEQ ID NO: 1) variant Y422L (YL). Description: Herbicide tolerance test in PPO-deficient E. coli BT3(ΔPPO), growth on plates. The note with it: Table 7, light, 37° C., 16 to 20 hours, vs wild type at highest herbicide concentration. Type of assay: cell-based.
Description: as §6, §7, §8, §9, §11, §12
Assay [22] deals with E. coli BT3(ΔPPO) transformed with Auxenochlorella protothecoides ApPPO1 (SEQ ID NO: 1) variant Y422I (YI). The class given is cell-based. The note with it: Table 7, light, 37° C., 16 to 20 hours, vs wild type at highest herbicide concentration.
Description: as §6, §7, §8, §9, §11, §12
Assay [23] has as its target Auxenochlorella protothecoides ApPPO1 (SEQ ID NO: 1) variant L389T, fused to MBP (Auxenochlorella protothecoides, UniProt A0A087SQM0, L389T). Description: PPO enzyme inhibition assay (IC50), MBP-fused PPO. The class given is biochemical.
The subject of assay [24] is E. coli BT3(ΔPPO) transformed with Myxococcus xanthus MxPPO (SEQ ID NO: 3) variant M365I. Put plainly: Herbicide tolerance test in PPO-deficient E. coli BT3(ΔPPO), growth on plates. Type of assay: cell-based. Particulars: Table 9, light, tiafenacil to 2000 μM, saflufenacil to 200 μM, flumioxazin to 100 μM.
Description: as §6, §7, §8, §9, §10

Sequence of Auxenochlorella protothecoides ApPPO1 (SEQ ID NO: 1) variant V360M, fused to MBP (A0A087SQM0 entry or part of it V360M): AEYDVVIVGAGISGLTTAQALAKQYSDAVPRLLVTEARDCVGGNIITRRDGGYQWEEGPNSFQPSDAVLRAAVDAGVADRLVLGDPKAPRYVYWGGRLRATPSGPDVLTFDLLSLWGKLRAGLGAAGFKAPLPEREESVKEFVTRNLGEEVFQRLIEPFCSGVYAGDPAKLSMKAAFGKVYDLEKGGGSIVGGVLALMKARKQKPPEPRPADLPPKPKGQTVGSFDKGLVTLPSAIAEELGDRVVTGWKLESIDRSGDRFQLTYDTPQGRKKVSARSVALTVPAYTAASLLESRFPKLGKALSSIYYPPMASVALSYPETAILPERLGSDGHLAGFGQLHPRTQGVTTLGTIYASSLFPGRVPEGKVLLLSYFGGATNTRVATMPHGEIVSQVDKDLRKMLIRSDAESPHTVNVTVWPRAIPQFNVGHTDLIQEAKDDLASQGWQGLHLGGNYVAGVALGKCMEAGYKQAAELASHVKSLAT
T2 sequence (P56601 whole entry L332T, the tested form may be a part): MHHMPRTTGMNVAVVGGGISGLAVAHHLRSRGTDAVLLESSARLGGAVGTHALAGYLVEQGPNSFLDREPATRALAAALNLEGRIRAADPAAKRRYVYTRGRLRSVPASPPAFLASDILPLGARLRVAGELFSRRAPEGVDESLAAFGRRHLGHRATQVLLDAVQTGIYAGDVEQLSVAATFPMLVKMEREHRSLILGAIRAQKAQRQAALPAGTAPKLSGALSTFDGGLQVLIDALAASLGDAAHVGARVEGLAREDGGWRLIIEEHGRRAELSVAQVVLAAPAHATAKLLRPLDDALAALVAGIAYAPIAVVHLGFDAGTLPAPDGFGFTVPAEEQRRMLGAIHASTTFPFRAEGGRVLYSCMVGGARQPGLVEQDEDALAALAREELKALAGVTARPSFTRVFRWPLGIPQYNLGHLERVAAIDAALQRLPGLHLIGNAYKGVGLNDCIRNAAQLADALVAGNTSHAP
Sequence of Auxenochlorella protothecoides ApPPO1 (SEQ ID NO: 1) variant L389T, fused to MBP (A0A087SQM0 entry or part of it L389T): as the sequence (A0A087SQM0 entry or part of it V360M) above, with M310V, L339T counted along it
Sequence of Auxenochlorella protothecoides ApPPO1 (SEQ ID NO: 1) variant F386V, fused to MBP (A0A087SQM0 entry or part of it F386V): as the sequence (A0A087SQM0 entry or part of it V360M) above, with M310V, F336V counted along it
Sequence of Auxenochlorella protothecoides ApPPO1 (SEQ ID NO: 1) variant V213C, fused to MBP (A0A087SQM0 entry or part of it V213C): as the sequence (A0A087SQM0 entry or part of it V360M) above, with V163C, M310V counted along it
T5 sequence (P56601 whole entry A170L, the tested form may be a part): as the sequence (P56601 whole entry L332T, the tested form may be a part) above, with A170L, T332L counted along it
T1 sequence (P56601 whole entry I311M, the tested form may be a part): as the sequence (P56601 whole entry L332T, the tested form may be a part) above, with I311M, T332L counted along it
T7 sequence (P56601 whole entry A170C, the tested form may be a part): as the sequence (P56601 whole entry L332T, the tested form may be a part) above, with A170C, T332L counted along it
T4 sequence (P56601 whole entry I168C, the tested form may be a part): as the sequence (P56601 whole entry L332T, the tested form may be a part) above, with I168C, T332L counted along it
T6 sequence (P56601 whole entry F329V, the tested form may be a part): as the sequence (P56601 whole entry L332T, the tested form may be a part) above, with F329V, T332L counted along it
T3 sequence (P56601 whole entry, the tested form may be a part): as the sequence (P56601 whole entry L332T, the tested form may be a part) above, with T332L counted along it
Sequence of Auxenochlorella protothecoides ApPPO1 (SEQ ID NO: 1) variant A215C, fused to MBP (A0A087SQM0 entry or part of it A215C): as the sequence (A0A087SQM0 entry or part of it V360M) above, with A165C, M310V counted along it
Sequence of Auxenochlorella protothecoides ApPPO1 (SEQ ID NO: 1) variant R140A, fused to MBP (A0A087SQM0 entry or part of it R140A): as the sequence (A0A087SQM0 entry or part of it V360M) above, with R90A, M310V counted along it

Regarding `COC(=O)CCNC(=O)C(C)Sc1cc(-n2c(=O)cc(C(F)(F)F)n(C)c2=O)c(F)cc1Cl` (stereo not drawn) [tiafenacil], the IC50 in assay [1] turned out to be 964 nM; in [2], 86 nM; in [6] it was 76 nM; in assay [7], 368 nM; in assay [8] it was 1010 nM; in assay [9], 81 nM. The IC50 in [10] is 0.242 µM; in assay [11] it was 550 nM; in assay [15], 75 nM; in assay [18], more than 5000 nM; in assay [19], 239 nM; in assay [20], 1680 nM. The compound also gave a 50% inhibitory concentration (IC50) in assay [23] of 716 nM. For the same compound, the “relative herbicide tolerance level” value was “+ (1-9 fold higher tolerance)” in [3]; “++ (10-99 fold higher tolerance)” in assay [4]; “++ (10-99 fold higher tolerance)” in assay [5]; “++ (10-99 fold higher tolerance)” in [12]; “+ (1-9 fold higher tolerance)” in assay [13]; “++ (10-99 fold higher tolerance)” in assay [14]. Besides, the “relative herbicide tolerance level” value is on record as “+ (1-9 fold higher tolerance)” in assay [16]; “++ (10-99 fold higher tolerance)” in [17]; “++ (10-99 fold higher tolerance)” in assay [21]; “++ (10-99 fold higher tolerance)” in [22]; “+ (1-9 fold higher tolerance)” in assay [24].

(Values after US20220042033A1, “COMPOSITION AND METHOD FOR CONFERRING AND/OR ENHANCING TOLERANCE AGAINST HERBICIDES BY USING VARIANTS OF PPO” (FarmHannong Co., Ltd., priority 2017, published 2022).)
